Each block holds one compound with its values, some of them ahead of it.
Assays:
[1] = test system: platelet aggregation; details: cited from earlier work
[2] = test system: MCF7-LTED cells; experiment: MTT cell viability assay; assay type: cell-based
Protocol: (§1) MCF7-LTED cells were established in phenol red-free Roswell Park Memorial Institute medium containing 10% dextran-coated charcoal-stripped fetal bovine serum. Cellular viability was evaluated using a standard methylthiazol tetrazolium (MTT; Sigma-Aldrich) assay. The results of these assays are expressed relative to vehicle treated controls and to the original time point.
MCF7 and MCF7-LTED cells were plated in 384-well microtiter plates and five compound dilutions (1 nM to 10 µM final concentration) from the LOPAC library (1,258 compounds, Sigma-Aldrich) were added to the cultures. Cell viability was assessed after 72 hours using MTT-based assays and the EnVision spectrofluorometer (Perkin-Elmer). The screen was performed in triplicate. The quality of the screen (Z'-factor > 0.5 for all screens) and the data was analyzed using the cell HTS2 module in the ScreenSaver database. The data was normalized between 0 and 1 using positive (1 µM phenylarsene oxide, Sigma-Aldrich) and negative (0.1% dimethyl sulfoxide, Merck) controls for cell viability. For hit selection, the difference between the normalize percentage inhibition (NPI) in MCF7 and MCF7-LTED cells was calculated by subtraction [ΔNPI = NPI(MCF7-LTED) - NPI(MCF7)] and the differentials were clustered with the MeV software package using the Cluster Affinity Search method with the Euclidean distance metric (threshold of 0.7).
Acquired resistance to aromatase inhibitors in postmenopausal women can be modeled in long-term estrogen-deprived (LTED) MCF7 cells. Using this model, a cell-based chemical compound screen was carried out to identify potential therapeutic strategies that could prevent and/or overcome resistance. More than 1,200 compounds were assessed for their differential effect on the viability (as defined by MTT-based assays) of MCF7-LTED cells relative to the parental MCF7 cells.
Having identified the comparative inhibitory effect of YC-1 on the viability of MCF7-LTED cells, we evaluated the effect of this compound on a collection of breast cancer cell lines. […]

[3] = test system: phenylephrine-induced contractions of rabbit aorta; details: cited from earlier work
[4] = test system: phospho-serine 235/236 ribosomal S6 protein; experiment: Phospho-S6 after YC-1 exposure of MCF7 cells; assay type: cell-based; details: MCF7 cells exposed to YC-1
Excerpt: (§2) To determine the YC-1 mechanism of action that may be selective in models of acquired resistance, the subcellular localization of ERα was first examined. Although ERα levels and localization were altered by YC-1 treatment, no substantial differences were observed between MCF7-LTED and MCF7 cells. Subsequently, whole-genome expression data was obtained and analyzed for the basal and YC-1-exposed conditions in both cell lines. Consistent with the results described above, expression of the ribosome pathway clearly distinguished MCF7-LTED and MCF7 cells in basal conditions. […] In contrast, exposure of MCF7-LTED cells to YC-1 led to alteration of the cell cycle pathway and a decrease in a central positive regulator of the cell cycle, E2F1.

[5] = test system: SKBR3; experiment: MTT cell viability assay; assay type: cell-based; details: Homo sapiens, SK-BR-3, SKBR3 cell line
Protocol: as §1
(§3) Having identified the comparative inhibitory effect of YC-1 on the viability of MCF7-LTED cells, we evaluated the effect of this compound on a collection of breast cancer cell lines. […] For the remaining sensitive cell lines (as defined by an IC50 < 10 µM threshold), no associations with ERα and/or progesterone receptor (PR) and/or human epidermal growth factor receptor 2 (HER2) were observed (Table 1). Table 1. YC-1 IC50 (µM) values in breast cancer cell lines

[6] = test system: MCF10A; experiment: MTT cell viability assay; assay type: cell-based; details: Homo sapiens, MCF-10A, MCF10A cell line
Protocol: as §1, §3

[7] = test system: MDA-MB-231; experiment: MTT cell viability assay; assay type: cell-based; details: Homo sapiens, MDA-MB-231 cell line
Protocol: as §1, §3

[8] = test system: MCF7-HER2; experiment: MTT cell viability assay; assay type: cell-based; details: MCF7-HER2 cell line
Protocol: as §1, §3

[9] = test system: MDA-MB-453; experiment: MTT cell viability assay; assay type: cell-based; details: Homo sapiens, MDA-MB-453 cell line
Protocol: as §1, §3

[10] = test system: ZR751; experiment: MTT cell viability assay; assay type: cell-based; details: Homo sapiens, ZR-75-1, ZR751 cell line
Protocol: as §1, §3

[11] = test system: AU565; experiment: MTT cell viability assay; assay type: cell-based; details: Homo sapiens, AU565 cell line
Protocol: as §1, §3

[12] = test system: HCC1937; experiment: MTT cell viability assay; assay type: cell-based; details: Homo sapiens, HCC1937 cell line
Protocol: as §1, §3

[13] = test system: T47D; experiment: MTT cell viability assay; assay type: cell-based; details: Homo sapiens, T47D cell line
Protocol: as §1, §3

[14] = test system: MDA-MB-468; experiment: MTT cell viability assay; assay type: cell-based; details: Homo sapiens, MDA-MB-468 cell line
Protocol: as §1, §3

[15] = test system: BT474; experiment: MTT cell viability assay; assay type: cell-based; details: Homo sapiens, BT-474, BT474 cell line
Protocol: as §1, §3

[16] = test system: MCF7 cells; experiment: MTT cell viability assay; assay type: cell-based; details: Homo sapiens, MCF7 cell line
Protocol: as §1
[…] Cell viability was assessed after 72 hours using MTT-based assays and the EnVision spectrofluorometer (Perkin-Elmer). The screen was performed in triplicate. The quality of the screen (Z'-factor > 0.5 for all screens) and the data was analyzed using the cell HTS2 module in the ScreenSaver database. […] For hit selection, the difference between the normalize percentage inhibition (NPI) in MCF7 and MCF7-LTED cells was calculated by subtraction [ΔNPI = NPI(MCF7-LTED) - NPI(MCF7)] and the differentials were clustered with the MeV software package using the Cluster Affinity Search method with the Euclidean distance metric (threshold of 0.7).
Acquired resistance to aromatase inhibitors in postmenopausal women can be modeled in long-term estrogen-deprived (LTED) MCF7 cells. […] More than 1,200 compounds were assessed for their differential effect on the viability (as defined by MTT-based assays) of MCF7-LTED cells relative to the parental MCF7 cells. […]

[17] = test system: ERα; experiment: Subcellular localization of ERα after YC-1 treatment; assay type: cell-based; details: MCF7-LTED and MCF7 cells; no substantial differences between the two
Excerpt: as §2

[18] = test system: E2F1; experiment: E2F1 after YC-1 exposure of MCF7-LTED cells; assay type: cell-based; details: MCF7-LTED cells exposed to YC-1
Excerpt: as §2

SMILES: Nc1nc(-c2nn(Cc3ccccc3F)c3ncccc23)ncc1C1CC1 [BAY 41-2272]
IC50 [1]: 0.036 µM
differences in cell viability ([2]; MCF7-LTED versus MCF7 cells, validation, Fig. 1C): differences in cell viability, although of lesser magnitude
IC50 [3]: 0.3 µM

SMILES: COc1cc2ncnc(Nc3ccc(F)c(Cl)c3)c2cc1OCCCN1CCOCC1 [Gefitinib, reference compound]
differences in the growth rate of the two cellular models ([2]; MCF7-LTED versus MCF7 cells, Fig. 1D): No differences

IC50 [5]: 1.6 µM
IC50 [7]: 4480 µM
IC50 [8]: 187 µM
IC50 [9]: 250 µM
IC50 [12]: 253 µM
IC50 [13]: 8.2 µM
IC50 [14]: 49 µM
IC50 [15]: 319 µM
IC50 [16]: 131 µM
IC50 ([2]; MCF7-LTED cell line (long-term estrogen-deprived), cell viability): 4.9 µM
SMILES: OCc1ccc(-c2nn(Cc3ccccc3)c3ccccc23)o1 [YC-1, 3-(5'-hydroxymethyl-2'-furyl)-1-benzylindazole]
phospho-serine 235/236 ribosomal S6 protein [4]: decrease
IC50 [6]: 99 µM
IC50 [10]: 0.3 µM
IC50 [11]: 1.3 µM
ERα levels and localization [17]: altered
E2F1 [18]: decrease

Reference: patent EP2821071A1, “Compounds for breast cancer treatment” (Institut d'Investigació Biomèdica de Bellvitge (IDIBELL), priority 2013, dated 2015)
